Measurements reported in PMC8709997, “Long-term memory T cells as preventive anticancer immunity elicited by TuA-derived heteroclitic peptides” (Journal of Translational Medicine, 2021).
Values joined by “and” are separate entries in the source; they are usually repeats but may differ in a detail not shown here. Identical values can stand only once.

What was measured:
[1] = molecular target: H-2 Db molecule (Mus musculus, UniProt P01899); assay: Peptide binding to H-2 Db on TAP-deficient RMA-S cells (flow cytometry); type: cell-based, murine; conditions: RMA-S cells loaded with sub-optimal 1 μM peptide, mean fluorescence intensity
Sequence of H-2 Db molecule (P01899 whole entry, looked up): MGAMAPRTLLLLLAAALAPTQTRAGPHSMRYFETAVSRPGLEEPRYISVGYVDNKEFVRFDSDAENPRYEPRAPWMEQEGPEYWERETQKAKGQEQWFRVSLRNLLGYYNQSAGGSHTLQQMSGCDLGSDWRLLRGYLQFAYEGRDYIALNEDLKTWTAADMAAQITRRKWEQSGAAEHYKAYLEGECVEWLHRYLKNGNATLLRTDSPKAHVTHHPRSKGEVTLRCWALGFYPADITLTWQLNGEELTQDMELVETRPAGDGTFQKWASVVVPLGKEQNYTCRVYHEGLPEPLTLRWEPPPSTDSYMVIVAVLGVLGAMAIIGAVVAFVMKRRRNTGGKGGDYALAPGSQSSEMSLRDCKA
Description: In order to experimentally confirm the binding and stability of heteroclitic peptides to H-2 Db molecule, the H-2 Db positive RMA-S cell line was loaded with a sub-optimal concentration of 1 μM of peptides.
Supplementary file 12967_2021_3194_MOESM1_ESM.pptx: Additional file 1: Fig. S1. Predicted affinity of wt and hPep peptides. The affinity to H2-Db were predicted by NetMHCpan 4.1 for wt and heteroclitic peptides. The affinity (Aff) values are expressed in nanomolarity (nM). The selected hPep peptides are indicated for both E7 and Trp2 peptides. Fig. S2. Experimental affinity of wt and hPep peptides. Binding to H2-Db molecule was assessed in TAP-deficient RMA-S cells loaded with the indicated peptides. Mean fluorescence intensity at flow cytometer indicates binding levels of peptides to HLA molecules. Fig. S3. Comparison of short-term and long-term immunization. The curve of tumor growth in the short-term and long-term immunization experiments for the B16 (A) and TC1 (B) is indicated for each individual animal. The Kaplan-Meyer curves for the B16 (C) and TC1 (D) is indicated.

[2] = system: IFN-γ secreting T cells; assay: IFN-γ ELISpot on PBMCs, TC1 experimental group; type: cell-based, C57BL/6 mice; conditions: PBMC pools re-stimulated with 10 ug/ml single peptides
Description: (§1) ELISPOT was performed according to BD Biosciences manufacturer instructions (BD ELISPOT Mouse IFN-γ ELISPOT Set cod. 551,083). 5 × 10^5 splenocytes or 2 × 10^5 PBMCs from pooled samples were counted, plated in each well and stimulated with 10ug/ml of single peptides used for the immunization and incubated for 24-26 h. As negative and positive control, peptide diluents PBS and 5ug/ml of phorbol myristate acetate (PMA, Sigma-Aldrich) were used respectively. Plates were read with an AID EliSpot Reader Systems (AID GmbH, Strassberg, Germany). The results were calculated as spot forming counts as a mean of a duplicate count from the specific antigen stimulation minus the negative control.
(§2) Fig. 5 Immunological evaluation in the short-term immunization. Blood samples were drawn during the experiment from retro-orbital veins and PBMCs were isolated. Interferon-γ (IFN-γ) secreting T cells were evaluated in vitro after O/N re-stimulation with individual peptides. Pool of samples were used for each experimental groups. A and B B16 group; C and D TC1 group. SFU IFN-γ spot forming units
Fig. 7 Immunological evaluation in the long-term immunization. Blood samples were drawn during the experiment from retro-orbital veins and PBMCs were isolated. Interferon-γ (IFN-γ) secreting T cells were evaluated in vitro after O/N re-stimulation with individual peptides. […]

[3] = system: TC-1 tumor cells expressing HPV16 E7 protein; assay: Preventive immunization and TC1 tumor challenge; type: in vivo, C57BL/6 mice
Description: (§3) C57BL/6 (H-2-Db) female mice, 8 weeks old, were purchased from Harlan (Udine, Italy). All animals were housed at the Animal Facility of the Istituto Nazionale Tumori “Pascale” (Naples, Italy). Mice were housed in number of 2–3 per cage and maintained in a conventional facility on a 12 h light:12 h dark cycle (lights on at 7:00 a.m.) in a temperature-controlled room (22 ± 2 °C) and with food and water ad libitum at all times. The experimental protocols were in compliance with the European Communities Council directive (86/609/EEC).
(§4) Mouse melanoma B16F10 (ATCC, CRL-6323) cells were cultured in DMEM medium supplemented with 10% heat inactivated FBS, 100 U/ml penicillin and […] streptomycin (Invitrogen, Carlsbad, CA) at 37 °C with 5% CO2. Cells were tested for mycoplasma before inoculation in mice (ATCC®, 30-1012 K™). Mouse lung TC-1 tumor cells expressing HPV16 E7 protein (ATCC, CRL-2493), were cultured in RPMI medium supplemented with 10% heat inactivated FBS, 100 U/ml penicillin and […] streptomycin (Invitrogen, Carlsbad, CA), HEPES 10 mM, MEM 0.1 mM and Na Piruvate 1 mM at 37 °C with 5% CO2.
(§5) B16F10 and TC1 cells were harvested in exponential growth phase by trypsinization and washed twice with ice-cold PBS. C57BL/6 mice were subcutaneously injected with 5 × 10^4 and 1 × 10^5 cells/mouse of B16F10 or TC1 respectively on the right back flank. A cell aliquot (200μL) containing 1 × 10^6 cells was loaded in 21G syringes for intra-splenic injection. The tumor size was measured and documented every two days with a caliper, starting on day 7, and calculated using the formula (AxB^2)/2 (A as the largest and B is the smallest diameter of tumor). Tumor growth was documented as mean tumor size with standard error. To record the survival of the tumor-bearing mice, either natural death or a tumor diameter greater than 1500 mm^3 leading to death was counted as death.
(§6) Cyclophosphamide (CTX) (Endoxan®, Baxter) (10 mg/Kg) and Paclitaxel (PTX) (Taxol®, BMS) (5 mg/Kg) diluted with phosphate-buffered saline (PBS) were administered via intraperitoneal injection (i.p.). The dose was extrapolated to human equivalent dose (HED). Metronomic Chemotherapy was weekly administered one day before the vaccine administration until the end of the experiment. An anti-mouse PD-1 MAb (BioXCell, West Lebanon, NH USA) was used as checkpoint inhibitor (CI) and administered via intraperitoneal injection (i.p.) at a dose of 100 μg.
Preventive experimental setting was performed as follow: C57BL/6 mice were immunized once a week for 4 weeks by subcutaneous administration (s.c.) with WT 100ug or a mix of equimolar ratio of heteroclitic peptides (100 ug tot) formulated in 50ug PolyI:C. At the end of the immunization protocol, a group of animals were implanted with of B16F10 or TC1 cell lines (short-term memory group). In parallel, a second group was left for 2 months without any further treatment before implantation of the same number of cells (long-term memory group). Immunizations were performed in combination with metronomic chemotherapy (MCT) and CI [24–26]. One group was treated only with MCT and CI (MCT + CI group). Control mice were treated with endotoxin-free phosphate-buffered saline (PBS). At the time of sacrifice, whole blood was collected by puncture of the sinus retro-orbital vein prior analgesia with oxybuprocaine chlorhydrate (Fig. 1).
Animals were immunized in a preventative setting with either the wt or the heteroclitic E7 and Trp2 peptides. At the end of the full vaccination protocol, animals were challenged with 5 × 10^5 TC1 or 1 × 10^4 B16 tumor cells, respectively.
In order to assess the anti-tumor efficacy of the long-term memory induced by the vaccination, animals were left free of active immunization for 2 months. Animals were then challenged with 5 × 10^5 TC1 or 1 × 10^4 B16 tumor cells, respectively. […] Similarly, in the TC1 model, the long-term immunity was unable to control tumor growth as for the short-term immune response. […]

[4] = system: IFN-γ secreting T cells; assay: IFN-γ ELISpot on PBMCs, B16 experimental group; type: cell-based, C57BL/6 mice; conditions: for vaccine-specific IFN-γ immune response: PBMC pools re-stimulated with 10 ug/ml single peptides; for cross-reactivity with the wt: PBMC pools, IFN-γ ELISpot
Description: as §1, §2
as §2, with “7” for “5”, “long-term” for “short-term”, “A–C” for “A and B”, “D–F” for “C and D”, “WT NEG animals in the WT group with no sign of tumor growth, HET NEG animals in the Heteroclitic group with no sign of tumor growth” for “SFU IFN-γ spot forming units”

[5] = system: B16F10 cells; assay: Preventive immunization and B16 tumor challenge; type: in vivo, C57BL/6 mice
Description: as §3, §4, §5, §6
Preventive experimental setting was performed as follow: C57BL/6 mice were immunized once a week for 4 weeks by subcutaneous administration (s.c.) with WT 100ug or a mix of equimolar ratio of heteroclitic peptides (100 ug tot) formulated in 50ug PolyI:C. […]

[6] = long-term: TC1 challenge 2 months after vaccination

## RAHANIVTF [A4-E7, heteroclitic E7 peptide, Y4 to A substitution]
[1]
  binding to the H2-Db molecule relative to wt: equivalent or higher than the wt

## RAHYHIVTF [H5-E7, heteroclitic E7 peptide, N5 to H substitution]
[1]
  binding to the H2-Db molecule relative to wt: complete loss of binding

## RAIYNIVTF [I3-E7, heteroclitic E7 peptide, H3 to I substitution]
[1]
  binding to the H2-Db molecule relative to wt: equivalent or higher than the wt
[2]; long-term setting
  vaccine-specific IFN-γ immune response: immunodominant
[2]; short-term setting
  vaccine-specific IFN-γ immune response: immunodominant

## RAHYNIVTF [WT-E7]
[3]; [6]
  animals still alive (n/N): 3/7
  tumor-free animals: 1
[3]; long-term: TC1 challenge 2 months after vaccination, compared to controls
  effect on tumor growth: significantly delayed
[3]; short-term TC1, growth at day 42 and day 51 post-challenge, follow up to day 60, data not shown
  animals showing late tumor growth: two animals
[3]; short-term: TC1 challenge at end of vaccination
  survival: 100%
[3]; short-term: TC1 challenge at end of vaccination, up to day 34
  effect on tumor growth: completely inhibit the tumor growth

## SVYAFFVWL [A4-Trp2, heteroclitic Trp2 peptide, D4 to A substitution]
[1]
  binding to the H2-Db molecule relative to wt: equivalent binding
[4]; long-term setting
  vaccine-specific IFN-γ immune response: immunodominant
  cross-reactivity with the wt: low cross-reactivity
[4]; short-term setting
  vaccine-specific IFN-γ immune response: immunodominant
  cross-reactivity with the wt: low cross-reactivity

## SVCDFFVWL [C3-Trp2, heteroclitic Trp2 peptide, Y3 to C substitution]
[1]
  binding to the H2-Db molecule relative to wt: equivalent binding

## SVYDNFVWL [N5-Trp2, heteroclitic Trp2 peptide, F5 to N substitution]
[1]
  binding to the H2-Db molecule relative to wt: much better than the wt

## SVYDFFVWL [WT-Trp2]
[5]; long-term: B16 challenge 2 months after vaccination, day 27 post-challenge
  survival of animals: all animals in the wt group reached the threshold for euthanasia
[5]; short-term: B16 challenge at end of vaccination
  effect on tumor growth: significantly delay tumor growth
[5]; short-term: B16 challenge at end of vaccination, 34 days post-challenge, 100 ug peptide s.c. weekly x4 in 50 ug PolyI:C, with MCT and CI
  animals still alive (n/N): 2/6
[5]; short-term: B16 challenge at end of vaccination, 34 days post-challenge, with PolyI:C, MCT and CI
  animals still alive / survival: 33.3% and 33%
[4]; long-term setting
  vaccine-specific IFN-γ immune response: strong and comparable
[4]; short-term setting
  vaccine-specific IFN-γ immune response: strong and comparable
